Assay results published in publication PMC7725443 (Advanced healthcare materials, 2020).

Test system: OVSAHO cells
Test: Cell viability of OVSAHO cells
Assay type: cell-based, human
Details: 50 nM and 100 nM, 24 h

In the case of `CC(C)C[C@H](NC(=O)[C@H](Cc1ccccc1)NC(=O)c1cnccn1)B(O)O` [BTZ, bortezomib], the “cell viability of OVSAHO cells treated with solely BTZ” value was “cell compatible”.
